According to US20260199294A1, “PEPTIDE DRUG CONJUGATES” (Oncopeptides Innovation AB, priority 2022, published 2026):

Columns and labels:
[1] = test system: hPBMC (Human Peripheral blood mononuclear cells); experiment: In vitro cytotoxicity (CellTiter-Glo, 72 h) in hPBMC; type: cell-based; settings: stimulated with PHA-M and IL-2
Method: (§1) All cells were cultivated in RPMI medium 1640 (IX). All media was supplemented with […] penicillin/streptomycin, 10% heat inactivated FBS, 0.1 mM Sodium Pyruvate, 1×MEM NEAA (ThermoFisher) and 1 mM HEPES. The DERL-2 cells had higher FBS (20%) and 40 ng/mL IL-2 was added. hPBMCs were thawed and allowed to acclimatise overnight and then stimulated with 10 µg/mL PHA-M and 40 ng/mL IL-2 for 4 hours before being exposed to test compounds. All cells, except for hPBMCs, were grown to reach log phase before being exposed to the test compounds.
(§2) Test compounds were dissolved in 100% DMSO and added to a 384 assay plate. Additional DMSO was added to maintain the same final DMSO concentration (0.2%) in all wells. 25 μL cell suspension with a concentration of 100000 cells/mL was added to each well. The cells were cultured in a CO2 incubator at 37° C. for 72 h. Plates were equilibrated to room temperature for 30 minutes before adding 20 μL CellTiter-Glo® 2.0 (Promega) reagent to all wells. The plate was then allowed to stabilize for 20 minutes before recording the luminescence (Em filter 700 nm) in an Envision plate reader.

[2] = test system: BJ Fibroblasts (normal cells); experiment: In vitro cytotoxicity (CellTiter-Glo, 72 h) in BJ fibroblasts; type: cell-based, human
Method: as §1, §2

MM.1S cells [3] = experiment: Cellular retention/efflux: intracellular and extracellular concentrations by LC-MS/MS; type: in vitro ADME, human; settings: MM.1S cells
Method: Methods: MM.1S cells at 2×10^6 cells/mL were seeded at 250 μL per well in a 96-well plate. Cells were incubated in the presence of a test compound for 5, 15, and 60 min before pelleting cells by centrifugation at +4° C. for 5 min. Cell media was immediately harvested to a second plate and stored at −80° C. until further analysis. Pelleted cells were washed once with ice cold PBS before storage at −80° C. until further analysis.
Cells were lysed and protein in the media were precipitated using acetonitrile dimethylformamide, 9:1 containing internal standard. Samples were centrifuged and the supernatant was analyzed with LC-MS/MS (ACQUITY UPLC-Xevo TQ-S micro) to determine compound concentration.
Example compound 1, bendamustine and melphalan were used as test compounds.
Method: Method described in Biological example 3.
Example compounds 1, 2, 3, 4, 6, 7 and 10 were investigated. Intracellular metabolites are formed from all compounds tested. The compound used for cell treatment was metabolised to the ester-hydrolysed compound (here called Metabolite A) and to the amide-hydrolysed compound (called Metabolite B). The example compound structures and the structures of the two metabolites for the respective compounds were as shown in Table 4. The Metabolites B formed under the conditions tested were compounds with structure as Examples 17 and 18: […]

[4] = test system: nuclear DNA (HPRT) prepared from MM.1S cells; experiment: Direct DNA damage, PCR amplification with HPRT primers; type: biochemical, human; settings: 0.25 μM compound, 30 minutes at 37° C.
Method: (§3) Method: DNA was prepared from MM.1S cells by QIAGEN genomic tip 20/G according to protocol described in Furda et al., Methods Mol Biol, 2012. 1 μg of DNA was treated with 0.25 μM compound for 30 minutes at 37° C. DMSO was used as control treatment. 20 ng of the treated DNA was PCR amplified using Phusion Hot Start II High Fidelity PCR Master Mix (Thermo Scientific) and primers directed to either HPRT or primers directed to mitochondrial DNA (mtDNA) was used, generating 10.4 or 8.9 kb fragments, respectively. The PCR reactions were separated on a 1% agarose gel and visualized by ChemiDoc™ MP Imaging System (BioRad). Example compounds 1, 2 and 38 were investigated, as were compounds 18 and 20, which are metabolites of compound 1. They were compared with bendamustine, melphalan and DMSO control. The results for compounds 1, 2, 18 and 20 with the HPRT primers are shown in FIG. 4(A); the results with the mtDNA primers are shown in FIG. 4(B).

[5] = Stability of Example compound 1 in solution with various excipients (HPLC); type: physicochemical; settings: 0.4 mg/mL
Method: Ethyl (2S)-2-[[(2S)-2-amino-4-[5-[bis(2-chloroethyl)amino]-1-methyl-benzimidazol-2-yl]butanoyl]amino]-4-methyl-pentanoate (Example compound 1; 19.2 mg, 16.7 mg free base) was dissolved in dimethylacetamide (419 μL) to give a 40 mg/mL stock solution.
Solutions of 0.4 mg/mL of Example compound 1 were prepared by diluting the stock solution in dimethylacetamide (40 mg/mL, 10 μL) with different solutions (990 μL) according to the Table 5 and the stability after 4 h at room temperature was analyzed by HPLC (Analytical HPLC was carried out on an Agilent Series 1100 system using a Kinetex XB C18 (2.6 μm, 3.0×50 mm) column with 0.1% TFA in H2O/CH3CN as mobile phase (acid conditions) (flow 1 mL/min). The excipients were reported in weight ratio excipient:Example compound 1 (free base).

MM.1S cells [6] = experiment: DNA fragmentation, APO-BrdU TUNEL assay by FACS; type: cell-based, human
Method: Method: 1×10^6 MM.1S cells (CRL-2974, ATCC) were treated with Example compound 1 or Bendamustine at 0.006, 0.06, 0.6 or 6 μM for 24 h. After incubation, the cells were washed with PBS (10010-015, Gibco), fixed in Flow Cytometry Fixation Buffer (FC004, R&D Systems) for 10 min and stored in 70% ethanol at −20° C. overnight. The deoxythymidine analog (BrdUTP) was present in the experiment and served to label the DNA break sites. Next day, the cells were washed and stained using an APO-BrdU™ TUNEL Assay Kit, according to the manufacturer's protocol (A23210, Invitrogen), followed by the analysis using BD FACSCanto™ II. The percentage ofTUNEL positive cells indicates the percentage of cells with fragmented DNA.

[7] = test system: mitochondrial DNA (mtDNA) prepared from MM.1S cells; experiment: Direct DNA damage, PCR amplification with mtDNA primers; type: biochemical, human; settings: 0.25 μM compound, 30 minutes at 37° C.
Method: as §3

CCOC(=O)[C@H](CC(C)C)NC(=O)[C@@H](N)CCc1nc2cc(N(CCCl)CCCl)ccc2n1C [Example compound 1, Ethyl (2S)-2-[[(2S)-2-amino-4-[5-[bis(2-chloroethyl)amino]-1-methyl-benzimidazol-2-yl]butanoyl]amino]-4-methyl-pentanoate]
IC50 [1]: 5.4 nM
IC50 [2]: 1070 nM
intracellular hydrolysis / metabolite formation (MM.1S cells [3]): hydrolysis of Example compound 1 took place inside the cells
DNA damage on nuclear DNA (HPRT 10.4 kb PCR band) [4]: strong DNA damaging effect
Ex 1 remaining after 4 h at room temp (%) ([5]; 2-Hydroxypropyl-β-cyclodextrin (Kleptose), Ultrapure water (MilliQ), weight ratio excipient:Ex 1 5): 78%
Ex 1 remaining after 4 h at room temp (%) ([5]; 2-Hydroxypropyl-β-cyclodextrin (Kleptose), Ultrapure water (MilliQ), weight ratio excipient:Ex 1 10): 84%
Ex 1 remaining after 4 h at room temp (%) ([5]; 2-Hydroxypropyl-β-cyclodextrin (Kleptose), Ultrapure water (MilliQ), weight ratio excipient:Ex 1 20): 85%
Ex 1 remaining after 4 h at room temp (%) ([5]; 2-Hydroxypropyl-γ-cyclodextrin, Ultrapure water (MilliQ), weight ratio excipient:Ex 1 5): 82%
Ex 1 remaining after 4 h at room temp (%) ([5]; 2-Hydroxypropyl-γ-cyclodextrin, Ultrapure water (MilliQ), weight ratio excipient:Ex 1 10): 86%
Ex 1 remaining after 4 h at room temp (%) ([5]; 2-Hydroxypropyl-γ-cyclodextrin, Ultrapure water (MilliQ), weight ratio excipient:Ex 1 20): 79%
Ex 1 remaining after 4 h at room temp (%) ([5]; Betadex Sulfobutyl Ether Sodium (Dexolve), Ultrapure water (MilliQ), weight ratio excipient:Ex 1 5): 99%
Ex 1 remaining after 4 h at room temp (%) ([5]; Betadex Sulfobutyl Ether Sodium (Dexolve), Ultrapure water (MilliQ), weight ratio excipient:Ex 1 10): 101%
Ex 1 remaining after 4 h at room temp (%) ([5]; Betadex Sulfobutyl Ether Sodium (Dexolve), Ultrapure water (MilliQ), weight ratio excipient:Ex 1 20): 98%
Ex 1 remaining after 4 h at room temp (%) ([5]; excipient None, solvent 0.9% Saline, ratio 0): 93%
Ex 1 remaining after 4 h at room temp (%) ([5]; excipient None, solvent 5% Glucose, ratio 0): 80%
Ex 1 remaining after 4 h at room temp (%) ([5]; excipient None, solvent DPBS, ratio 0): 10%
Ex 1 remaining after 4 h at room temp (%) ([5]; excipient None, solvent Dimethylacetamide, ratio 0): 103%
Ex 1 remaining after 4 h at room temp (%) ([5]; excipient None, solvent Ultrapure water (MilliQ), ratio 0): 85%
Ex 1 remaining after 4 h at room temp (%) ([5]; γ-Cyclodextrin, Ultrapure water (MilliQ), weight ratio excipient:Ex 1 5): 78%
Ex 1 remaining after 4 h at room temp (%) ([5]; γ-Cyclodextrin, Ultrapure water (MilliQ), weight ratio excipient:Ex 1 10): 82%
Ex 1 remaining after 4 h at room temp (%) ([5]; γ-Cyclodextrin, Ultrapure water (MilliQ), weight ratio excipient:Ex 1 20): 86%
cells with DNA breaks (MM.1S cells [6]; 0.6 μM for 24 h): > 90%
dose response effect on DNA damage (TUNEL positive cells) (MM.1S cells [6]; 0.006, 0.06, 0.6 or 6 μM for 24 h): induced DNA damage in a dose-dependent manner
DNA damage on mitochondrial DNA (8.9 kb PCR band) [7]: strong DNA damaging effect
